Measurements taken from PubChem BioAssay AID1963436 (Molecular Pharmacology Branch, DTP, NCI, 2024).

Tested on: OVCAR-5 complex spheroid (HUVEC/MSC), viability % T/C
Experiment: Anticancer human tumor OVCAR-5 cell line growth inhibition [Asc];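 further: spheroids exposed to agents for 7 days before readout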;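 on viability, T/C: 100% = DMSO vehicle-treated wells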
Conditions: for IC50: curve of first compound; for viability, T/C: stronger effect = lower value; active means viability on the fitted dose curve at most 10% of control; inactive means the rest
Procedure, shortened: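 Stromal components (HUVEC and hMSC) are co-assembled with the cancer cells into multicellular spheroids. Drugs are then added singly or paired, at concentrations falling by half-log increments from a clinically achievable maximum, capped at 10 microM without known Cmax.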

[1] = second compound 0.01 µM, first compound 0.00949 µM
[2] = second compound 0.01 µM, first compound 0.03 µM
[3] = second compound 0.01 µM, first compound 0.0949 µM
[4] = second compound 0.01 µM, first compound 0.3 µM
[5] = second compound 0.01 µM, first compound 0.949 µM
[6] = second compound 0.01 µM, first compound 3 µM
[7] = second compound 0.0316 µM, first compound 0.00949 µM
[8] = second compound 0.0316 µM, first compound 0.03 µM
[9] = second compound 0.0316 µM, first compound 0.0949 µM
[10] = second compound 0.0316 µM, first compound 0.3 µM
[11] = second compound 0.0316 µM, first compound 0.949 µM
[12] = second compound 0.0316 µM, first compound 3 µM
[13] = second compound 0.1 µM, first compound 0.00949 µM
[14] = second compound 0.1 µM, first compound 0.03 µM
[15] = second compound 0.1 µM, first compound 0.0949 µM
[16] = second compound 0.1 µM, first compound 0.3 µM
[17] = second compound 0.1 µM, first compound 0.949 µM
[18] = second compound 0.1 µM, first compound 3 µM
[19] = second compound 0.316 µM, first compound 0.00949 µM
[20] = second compound 0.316 µM, first compound 0.03 µM
[21] = second compound 0.316 µM, first compound 0.0949 µM
[22] = second compound 0.316 µM, first compound 0.3 µM
[23] = second compound 0.316 µM, first compound 0.949 µM
[24] = second compound 0.316 µM, first compound 3 µM
[25] = second compound 1 µM, first compound 0.00949 µM
[26] = second compound 1 µM, first compound 0.03 µM
[27] = second compound 1 µM, first compound 0.0949 µM
[28] = second compound 1 µM, first compound 0.3 µM
[29] = second compound 1 µM, first compound 0.949 µM
[30] = second compound 1 µM, first compound 3 µM

C=CC(=O)N1CCN(c2nc(=O)n(-c3c(C)ccnc3C(C)C)c3nc(-c4c(O)cccc4F)c(F)cc23)C(C)C1 (stereo not given) + CNC(C)C(=O)NC1CN(S(=O)(=O)c2cccc(S(=O)(=O)N3CCC4CCC(C(=O)NC(c5ccccc5)c5ccccc5)N4C(=O)C(NC(=O)C(C)NC)C3)c2)CCC2CCC(C(=O)NC(c3ccccc3)c3ccccc3)N2C1=O
> 10 µM: IC50 (second compound 0.01 µM) | IC50 (second compound 0.0316 µM) | IC50 (second compound 0.1 µM) | IC50 (second compound 0.316 µM) | IC50 (second compound 1 µM)
inactive: viability, T/C (second compound 0.01 µM, first compound 0.0316 µM) 88.4% | viability, T/C (second compound 0.01 µM, first compound 0.1 µM) 89.9% | viability, T/C (second compound 0.01 µM, first compound 0.316 µM) 85.9% | viability, T/C (second compound 0.01 µM, first compound 1 µM) 100% | viability, T/C (second compound 0.01 µM, first compound 3.16 µM) 115% | viability, T/C (second compound 0.01 µM, first compound 10 µM) 105% | viability, T/C (second compound 0.0316 µM, first compound 0.0316 µM) 74.4% | viability, T/C (second compound 0.0316 µM, first compound 0.1 µM) 84.4% | viability, T/C (second compound 0.0316 µM, first compound 0.316 µM) 83.3% | viability, T/C (second compound 0.0316 µM, first compound 1 µM) 91.2% | viability, T/C (second compound 0.0316 µM, first compound 3.16 µM) 106% | viability, T/C (second compound 0.0316 µM, first compound 10 µM) 104% | viability, T/C (second compound 0.1 µM, first compound 0.0316 µM) 76.3% | viability, T/C (second compound 0.1 µM, first compound 0.1 µM) 87% | viability, T/C (second compound 0.1 µM, first compound 0.316 µM) 90.6% | viability, T/C (second compound 0.1 µM, first compound 1 µM) 88.2% | viability, T/C (second compound 0.1 µM, first compound 3.16 µM) 109% | viability, T/C (second compound 0.1 µM, first compound 10 µM) 103% | viability, T/C (second compound 0.316 µM, first compound 0.0316 µM) 76.4% | viability, T/C (second compound 0.316 µM, first compound 0.1 µM) 83.5% | viability, T/C (second compound 0.316 µM, first compound 0.316 µM) 84.9% | viability, T/C (second compound 0.316 µM, first compound 1 µM) 90.4% | viability, T/C (second compound 0.316 µM, first compound 3.16 µM) 104% | viability, T/C (second compound 0.316 µM, first compound 10 µM) 109% | viability, T/C (second compound 1 µM, first compound 0.0316 µM) 92.9% | viability, T/C (second compound 1 µM, first compound 0.1 µM) 100% | viability, T/C (second compound 1 µM, first compound 0.316 µM) 90.4% | viability, T/C (second compound 1 µM, first compound 1 µM) 96.7% | viability, T/C (second compound 1 µM, first compound 3.16 µM) 103% | viability, T/C (second compound 1 µM, first compound 10 µM) 102%

CCN1C(C(=O)NC23CCC(C(=O)O)(CC2)CC3)C(c2cccc(Cl)c2F)C2(C(=O)Nc3cc(Cl)ccc32)C12CCCCC2 (stereo not given) + CNC(C)C(=O)NC1CN(S(=O)(=O)c2cccc(S(=O)(=O)N3CCC4CCC(C(=O)NC(c5ccccc5)c5ccccc5)N4C(=O)C(NC(=O)C(C)NC)C3)c2)CCC2CCC(C(=O)NC(c3ccccc3)c3ccccc3)N2C1=O
inactive: viability, T/C [1] 92.6% | viability, T/C [2] 96.2% | viability, T/C [3] 94.8% | viability, T/C [4] 98% | viability, T/C [5] 106% | viability, T/C [6] 101% | viability, T/C [7] 84.8% | viability, T/C [8] 89% | viability, T/C [9] 80.7% | viability, T/C [10] 84.8% | viability, T/C [11] 83.4% | viability, T/C [12] 93.8% | viability, T/C [13] 88.6% | viability, T/C [14] 87.9% | viability, T/C [15] 88.6% | viability, T/C [16] 84.8% | viability, T/C [17] 90.7% | viability, T/C [18] 86.7% | viability, T/C [19] 84.4% | viability, T/C [20] 85% | viability, T/C [21] 79% | viability, T/C [22] 84.2% | viability, T/C [23] 94.8% | viability, T/C [24] 89.6% | viability, T/C [25] 97.2% | viability, T/C [26] 100% | viability, T/C [27] 86.9% | viability, T/C [28] 86.9% | viability, T/C [29] 90.1% | viability, T/C [30] 85.2%
> 3 µM: IC50 (second compound 0.01 µM) | IC50 (second compound 0.0316 µM) | IC50 (second compound 0.1 µM) | IC50 (second compound 0.316 µM) | IC50 (second compound 1 µM)

Cc1nc(N2CCC3(CC2)COC(C)C3N)c(CO)nc1Sc1ccnc(N)c1Cl (stereo not given) + CNC(C)C(=O)NC1CN(S(=O)(=O)c2cccc(S(=O)(=O)N3CCC4CCC(C(=O)NC(c5ccccc5)c5ccccc5)N4C(=O)C(NC(=O)C(C)NC)C3)c2)CCC2CCC(C(=O)NC(c3ccccc3)c3ccccc3)N2C1=O
inactive: viability, T/C [1] 98.5% | viability, T/C [2] 91% | viability, T/C [3] 85% | viability, T/C [4] 77.7% | viability, T/C [5] 68.3% | viability, T/C [6] 63.8% | viability, T/C [7] 84.5% | viability, T/C [8] 92.3% | viability, T/C [9] 76.1% | viability, T/C [10] 66.7% | viability, T/C [11] 63.2% | viability, T/C [12] 56.2% | viability, T/C [13] 84% | viability, T/C [14] 82.3% | viability, T/C [15] 76.7% | viability, T/C [16] 61.4% | viability, T/C [17] 58.8% | viability, T/C [18] 52.1% | viability, T/C [19] 82.7% | viability, T/C [20] 74.6% | viability, T/C [21] 64.4% | viability, T/C [22] 62.1% | viability, T/C [23] 51.9% | viability, T/C [24] 55.2% | viability, T/C [25] 82.7% | viability, T/C [26] 80.8% | viability, T/C [27] 71.7% | viability, T/C [28] 64.4% | viability, T/C [29] 60.2% | viability, T/C [30] 47.7%
2.51 µM: IC50 (second compound 1 µM)
> 3 µM: IC50 (second compound 0.01 µM) | IC50 (second compound 0.0316 µM) | IC50 (second compound 0.1 µM) | IC50 (second compound 0.316 µM)
